Measured values as given in patent US20070213339A1 (Bayer Pharmaceuticals Corporation, priority 2004, published 2007).
pIC50: −log10 of the molar value.

Tested on: Colo205 human colon carcinoma cell line
Experiment: In vitro tumor cell proliferation assay (MTS, CellTiter 96 Aqueous One Solution)
Format: cell-based
Conditions: COLO 205, Colo205 cells, 72 hours compound exposure, MTS absorbance at 490 nm, read-out: IC50 (concentration of test compound required to inhibit proliferation of 50% of the cells)
Method: In Vitro Tumor Cell Proliferation Assay
The adherent H460 human non-small cell lung carcinoma and Colo205 human colon carcinoma cell lines were purchased from the American Type and Culture Collection (ATCC, Manassas, Va.) and maintained in RPMI-1640 growth media supplemented with 10% heat inactivated fetal bovine serum (Gibco, Invitrogen Corp. Grand Island, N.Y.). At 37° C. in a humidified atmosphere of 5% CO2.
The CellTiter 960 Aqueous One Solution kit, MTS, (Promega, Madison, Wis.) was used to measure proliferation of tumor cell lines in vitro. This method monitors the bioreduction of a tetrazolium dye as a measure of cell viability. On Day 0, exponentially growing cells were trypsinized, resuspended in RPMI-1640 growth media supplemented with 10% FCS, 100 u/ml of penicillin G and 100 ug/ml of streptomycin sulfate, and seeded at 2000 cells per well into 96 well microtiter plates. Cells were incubated overnight in a humidified atmosphere of 5% CO2 at 37° C. On Day 1, serial dilutions of compounds were prepared at 2× the finial assay concentration. One hundred microliters of 2× solution was added to test wells in duplicate and control wells received no test compound. The final drug concentration ranged from 0 to 10-20 um in a 5 point dose-response curve. Cells were incubated in the presence of test compounds in a humidified atmosphere of 5% CO2 at 37° C. for 72 hours. After 72 hours of compound exposure, 40 ul of Promega CellTiter 960 Aqueous One Solution was added to each well and absorbance at 490 n-M was measured using a multi-well plate reader. Percent inhibition of proliferation was calculated using the following formula: 100×(1−Absorbancetreated−Background/(Absorbancecontrol−Background)
Absorbancetreated=absorbance at 490 nm in test wells, cells with test compound
Absorbancecontrol=absorbance at 490 nm in control wells, cells with no test compound
Background=absorbance 490 nm in wells containing media and no cells
The concentration of test compound required to inhibit proliferation of 50% of the cells (IC50) was determined by linear regression analysis.
Representative compounds of the invention were tested in the above-described Colo205 human colon carcinoma cell line in vitro assay and found to inhibit human colon carcinoma cell proliferation, and are summarized as follows: […]

Compound | pIC50
CON(C)Cc1ccc(-n2cc(C(=O)O)c(=O)c3cc(F)c(N4CCN(c5ccccn5)CC4)c(Cl)c32)cc1 [Example 49, 8-chloro-6-fluoro-1-(4-{[methoxy(methyl)-amino]methyl}phenyl)-4-oxo-7-(4-pyridin-2-ylpiperazin-1-yl)-1,4-dihydroquinoline-3-carboxylic acid] | 4.70 to 5.70
CCN(CC)Cc1ccc(-n2cc(C(=O)O)c(=O)c3cc(F)c(N4CCN(c5ccc(F)cc5)CC4)c(OC(F)(F)Cl)c32)cc1 [Example 163, 8-[chloro(difluoro)methoxy]-1-{4-[(diethylamino)methyl]phenyl}-6-fluoro-7-[4-(4-fluorophenyl)piperazin-1-yl]-4-oxo-1,4-dihydroquinoline-3-carboxylic acid] | > 6.30
O=C(O)c1cn(-c2ccc(CNC3CCC3)cc2)c2c(Cl)c(N3CCN(c4ccccn4)CC3)c(F)cc2c1=O [Example 58, 8-chloro-1-{4-[(cyclobutylamino)methyl]-phenyl}-6-fluoro-4-oxo-7-(4-pyridin-2-ylpiperazin-1-yl)-1,4-dihydroquinoline-3-carboxylic acid] | > 6.30
CCN(CC)Cc1ccc(-n2cc(C(=O)O)c(=O)c3cc(F)c(N4CCN(c5cc(Cl)ccc5C)CC4)c(OC(F)(F)F)c32)cc1 [Example 134, 7-[4-(5-chloro-2-methylphenyl)piperazin-1-yl]-1-{4-[(diethylamino)methyl]phenyl}-6-fluoro-4-oxo-8-(trifluoromethoxy)-1,4-dihydroquinoline-3-carboxylic acid] | 5.70 to 6.30
Cc1cccnc1N1CCN(c2c(F)cc3c(=O)c(C(=O)O)cn(-c4ccc(CN5CCCC5)cc4)c3c2OC(F)(F)F)CC1 [Example 122, 6-fluoro-7-[4-(3-methylpyridin-2-yl)-piperazin-1-yl]-4-oxo-1-[4-(pyrrolidin-1-ylmethyl)phenyl]-8-(trifluoromethoxy)-1,4-dihydroquinoline-3-carboxylic acid] | > 6.30
O=C(O)c1cn(-c2cccc(CN3CCCCC3)c2)c2c(Cl)c(N3CCN(c4ccccn4)CC3)c(F)cc2c1=O [Example 65, 8-chloro-6-fluoro-4-oxo-1-[3-(piperidin-1-yl-methyl)phenyl]-7-(4-pyridin-2-ylpiperazin-1-yl)-1,4-dihydroquinoline-3-carboxylic acid] | 4.70 to 5.70
CN(C)Cc1ccc(-n2cc(C(=O)O)c(=O)c3cc(F)c(N4CCN(c5ccc(F)cc5)CC4)c(OC(F)(F)F)c32)cc1 [Example 131, 1-{4-[(dimethylamino)methyl]phenyl}-6-fluoro-7-[4-(4-fluorophenyl)piperazin-1-yl]-4-oxo-8-(trifluoromethoxy)-1,4-dihydroquinoline-3-carboxylic acid] | > 6.30
CCN(C)Cc1ccc(-n2cc(C(=O)O)c(=O)c3cc(F)c(N4CCN(c5ncccn5)CC4)c(OC(F)(F)Cl)c32)cc1 [Example 165, 8-[chloro(difluoro)methoxy]-1-(4-{[ethyl(methyl)amino]methyl}phenyl)-6-fluoro-4-oxo-7-(4-pyrimidin-2-ylpiperazin-1-yl)-1,4-dihydroquinoline-3-carboxylic acid] | > 6.30
O=C(O)c1cn(-c2cccc(CN3CCCCC3)c2)c2c(Cl)c(N3CCN(c4cccc(Cl)c4)CC3)c(F)cc2c1=O [Example 68, 8-chloro-7-[4-(3-chlorophenyl)piperazin-1-yl]-6-fluoro-4-oxo-1-[3-(piperidin-1-ylmethyl)phenyl]-1,4-dihydroquinoline-3-carboxylic acid] | 4.70 to 5.70
N#Cc1cccnc1N1CCN(c2c(F)cc3c(=O)c(C(=O)O)cn(-c4ccc(CN5CCCC5)cc4)c3c2OC(F)(F)F)CC1 [Example 125, 7-[4-(3-cyanopyridin-2-yl)piperazin-1-yl]-6-fluoro-4-oxo-1-[4-(pyrrolidin-1-ylmethyl)phenyl]-8-(trifluoromethoxy)-1,4-dihydroquinoline-3-carboxylic acid] | > 6.30
